Data as given in PubChem BioAssay (NCI).
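Each compound was tested at five concentrations against cells in 96-well plates for 48 hours. TGI marks complete inhibition of growth.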

Legend:
Test in all cases: NCI-60 cell line screen, 48 h
A549 NSCLC = tested on: A549 NSCLC
HL-60(TB) leukemia = tested on: HL-60(TB) leukemia
K-562 leukemia = tested on: K-562 leukemia
KM12 colon = tested on: KM12 colon
RPMI-8226 leukemia = tested on: RPMI-8226 leukemia
SK-MEL-2 melanoma = tested on: SK-MEL-2 melanoma
SR leukemia = tested on: SR leukemia
SW-620 colon = tested on: SW-620 colon
U251 CNS = tested on: U251 CNS
UACC-62 melanoma = tested on: UACC-62 melanoma

Molecule `CN(C)Cc1cc(C(=O)O)cc(CN(C)C)c1O` has a TGI (A549 NSCLC) of over 100 µM, a TGI (HL-60(TB) leukemia) of over 100 µM and a TGI (K-562 leukemia) of over 100 µM. The TGI (KM12 colon) was over 100 µM, the TGI (RPMI-8226 leukemia) was over 100 µM and the TGI (SK-MEL-2 melanoma) was over 100 µM. For the same molecule, the TGI (SR leukemia) was over 100 µM, the TGI (SW-620 colon) was over 100 µM and the TGI (U251 CNS) was over 100 µM. It also gave a TGI (UACC-62 melanoma) of over 100 µM.
`Cc1ccc2[nH]c(=O)c(-c3cnc(=O)[nH]n3)c(O)c2c1` gave a TGI (A549 NSCLC) of over 100 µM, a TGI (HL-60(TB) leukemia) of over 100 µM and a TGI (K-562 leukemia) of over 100 µM. The TGI (KM12 colon) was over 100 µM, the TGI (RPMI-8226 leukemia) was over 100 µM and the TGI (SK-MEL-2 melanoma) was over 100 µM. For the same molecule, the TGI (SR leukemia) was over 100 µM, the TGI (SW-620 colon) was over 100 µM and the TGI (U251 CNS) was over 100 µM. It also gave a TGI (UACC-62 melanoma) of over 100 µM.
Molecule `CC[C@H]1C=CCC[C@@]2(C[C@@H]3CC[C@@H]4[C@H](C(=O)OCCCCCCCCCCCCCCCC(=O)N(CCCN)C[C@@H](O)CCN)[C@]5(CCC[C@@H](C)O5)NC(=[N+]34)N2)O1` has a TGI (A549 NSCLC) of 1.25 µM, a TGI (HL-60(TB) leukemia) of 1.36 µM and a TGI (K-562 leukemia) of 0.565 µM. The TGI (KM12 colon) was 1.58 µM, the TGI (RPMI-8226 leukemia) was 0.755 µM and the TGI (SK-MEL-2 melanoma) was 0.673 µM. For the same molecule, the TGI (SR leukemia) was 0.397 µM, the TGI (SW-620 colon) was 3.87 µM and the TGI (U251 CNS) was 1.68 µM. The TGI (UACC-62 melanoma) was 0.239 µM.
`COc1ccc(CN=CN/C(C#N)=C(\N)C#N)cc1OC` was tested, and the TGI (A549 NSCLC) was over 100 µM, the TGI (HL-60(TB) leukemia) was over 100 µM and the TGI (K-562 leukemia) was over 100 µM. It also gave a TGI (KM12 colon) of over 100 µM, a TGI (RPMI-8226 leukemia) of over 100 µM and a TGI (SK-MEL-2 melanoma) of over 100 µM. The TGI (SR leukemia) was over 100 µM, the TGI (SW-620 colon) was over 100 µM and the TGI (U251 CNS) was over 100 µM. For the same molecule, the TGI (UACC-62 melanoma) was over 100 µM.
Molecule `COc1ccc(-c2cn3c(n2)sc2cc(C)ccc23)cc1` has a TGI (A549 NSCLC) of over 100 µM, a TGI (HL-60(TB) leukemia) of 23 µM and a TGI (K-562 leukemia) of over 100 µM. The TGI (KM12 colon) was over 100 µM, the TGI (RPMI-8226 leukemia) was over 100 µM and the TGI (SK-MEL-2 melanoma) was 37.1 µM. The TGI (SR leukemia) was over 100 µM, the TGI (SW-620 colon) was over 100 µM and the TGI (U251 CNS) was 21.8 µM. It also gave a TGI (UACC-62 melanoma) of 41.9 µM.
With `COc1cc2[nH]c(-c3ccccc3)cc(=O)c2cc1OC` the TGI (A549 NSCLC) was over 69.8 µM, the TGI (HL-60(TB) leukemia) was 41 µM and the TGI (K-562 leukemia) was over 100 µM. The TGI (KM12 colon) was over 74.9 µM, the TGI (RPMI-8226 leukemia) was over 100 µM and the TGI (SK-MEL-2 melanoma) was over 100 µM. It also gave a TGI (SR leukemia) of over 48.3 µM, a TGI (SW-620 colon) of over 100 µM and a TGI (U251 CNS) of over 100 µM. It also gave a TGI (UACC-62 melanoma) of over 89 µM.
Molecule `COc1ccc2c(c1)CC[C@@H]1[C@@H]2CC[C@]2(C)/C(=N/OCCN3CCCCC3)CC[C@@H]12` has a TGI (A549 NSCLC) of 19.8 µM, a TGI (HL-60(TB) leukemia) of 6.35 µM and a TGI (K-562 leukemia) of 9.62 µM. The TGI (KM12 colon) was 13.2 µM, the TGI (RPMI-8226 leukemia) was 6.35 µM and the TGI (SK-MEL-2 melanoma) was 18.7 µM. The TGI (SR leukemia) was 6.29 µM, the TGI (SW-620 colon) was 20.3 µM and the TGI (U251 CNS) was 24.3 µM. It also gave a TGI (UACC-62 melanoma) of 3.68 µM.
Molecule `Cn1c2ccccc2n2c3nc4ccccc4nc3c(C#N)c12` has a TGI (A549 NSCLC) of over 100 µM, a TGI (HL-60(TB) leukemia) of over 100 µM and a TGI (K-562 leukemia) of over 100 µM. It also gave a TGI (KM12 colon) of over 100 µM, a TGI (RPMI-8226 leukemia) of over 100 µM and a TGI (SK-MEL-2 melanoma) of over 100 µM. The TGI (SR leukemia) was over 100 µM, the TGI (SW-620 colon) was over 100 µM and the TGI (U251 CNS) was over 100 µM. The TGI (UACC-62 melanoma) was over 100 µM.
For `COC(=O)C(Cc1ccccc1)NC(=O)CNC(=O)CSc1nnc(COc2ccc(Cl)cc2)n1-c1ccccc1` (stereo not given), the TGI (A549 NSCLC) was 34.5 µM, the TGI (HL-60(TB) leukemia) was 13.7 µM and the TGI (K-562 leukemia) was over 75.6 µM. The TGI (KM12 colon) was 35.2 µM, the TGI (RPMI-8226 leukemia) was 21.8 µM and the TGI (SK-MEL-2 melanoma) was 33.8 µM. The TGI (SR leukemia) was over 20.4 µM, the TGI (SW-620 colon) was 47 µM and the TGI (U251 CNS) was 32.8 µM. The TGI (UACC-62 melanoma) was 28.6 µM.
In the case of `CN(C)CCCOC(=O)C(O)(Cc1ccccc1)C1CC1` (stereo not given), the TGI (A549 NSCLC) is reported as over 100 µM, the TGI (HL-60(TB) leukemia) is reported as over 100 µM and the TGI (K-562 leukemia) is reported as over 100 µM. The TGI (KM12 colon) was over 100 µM, the TGI (RPMI-8226 leukemia) was over 100 µM and the TGI (SK-MEL-2 melanoma) was over 100 µM. It also gave a TGI (SR leukemia) of over 100 µM, a TGI (SW-620 colon) of over 100 µM and a TGI (U251 CNS) of over 100 µM. For the same molecule, the TGI (UACC-62 melanoma) was over 100 µM.
For `CCN(CC)C(=O)CCCCCCCCC1CO1` (stereo not given), the TGI (A549 NSCLC) was over 100 µM, the TGI (HL-60(TB) leukemia) was over 100 µM and the TGI (K-562 leukemia) was over 100 µM. For the same molecule, the TGI (KM12 colon) was over 100 µM, the TGI (RPMI-8226 leukemia) was over 100 µM and the TGI (SK-MEL-2 melanoma) was over 100 µM. It also gave a TGI (SR leukemia) of over 100 µM, a TGI (SW-620 colon) of over 100 µM and a TGI (U251 CNS) of over 100 µM. It also gave a TGI (UACC-62 melanoma) of over 100 µM.
Molecule `COC(=O)/C=C1/OC(c2ccccc2)=C(Cl)C1=O` has a TGI (A549 NSCLC) of 69.4 µM, a TGI (HL-60(TB) leukemia) of 16.2 µM and a TGI (K-562 leukemia) of 25.9 µM. The TGI (KM12 colon) was 45.6 µM, the TGI (RPMI-8226 leukemia) was 22.5 µM and the TGI (SK-MEL-2 melanoma) was 45.8 µM. The TGI (SR leukemia) was 17.9 µM, the TGI (SW-620 colon) was 41.6 µM and the TGI (U251 CNS) was 27.1 µM. It also gave a TGI (UACC-62 melanoma) of 38.8 µM.
`CC1(C)N=C(N)N=C(N)N1c1cccc(CSc2ccccc2)c1` gave a TGI (A549 NSCLC) of over 100 µM, a TGI (HL-60(TB) leukemia) of 13.3 µM and a TGI (K-562 leukemia) of over 100 µM. It also gave a TGI (KM12 colon) of over 100 µM, a TGI (RPMI-8226 leukemia) of over 100 µM and a TGI (SK-MEL-2 melanoma) of over 100 µM. For the same molecule, the TGI (SR leukemia) was 14.2 µM, the TGI (SW-620 colon) was over 100 µM and the TGI (U251 CNS) was over 100 µM. The TGI (UACC-62 melanoma) was over 100 µM.
`COc1cc(C2c3cc4c(cc3OC(N3CCOCC3)C2C)OCO4)cc(OC)c1O` (stereo not given) gave a TGI (A549 NSCLC) of over 59.9 µM, a TGI (HL-60(TB) leukemia) of over 26 µM and a TGI (K-562 leukemia) of over 75.5 µM. The TGI (KM12 colon) was over 100 µM, the TGI (RPMI-8226 leukemia) was over 100 µM and the TGI (SK-MEL-2 melanoma) was 46.3 µM. It also gave a TGI (SR leukemia) of over 35.1 µM, a TGI (SW-620 colon) of over 59.6 µM and a TGI (U251 CNS) of over 53.6 µM. The TGI (UACC-62 melanoma) was over 100 µM.
In the case of `C=C(Br)CN(C#N)CC(=C)Br`, the TGI (A549 NSCLC) is reported as over 100 µM, the TGI (HL-60(TB) leukemia) is reported as over 100 µM and the TGI (K-562 leukemia) is reported as over 100 µM. The TGI (KM12 colon) was over 100 µM, the TGI (RPMI-8226 leukemia) was over 100 µM and the TGI (SK-MEL-2 melanoma) was over 100 µM. For the same molecule, the TGI (SR leukemia) was over 100 µM, the TGI (SW-620 colon) was over 100 µM and the TGI (U251 CNS) was over 100 µM. The TGI (UACC-62 melanoma) was over 100 µM.
`CCCCCc1c(CCCC)c(=O)[nH]c2cc(CNCC(OC)OC)ccc12` was tested, and the TGI (A549 NSCLC) was 25.7 µM, the TGI (HL-60(TB) leukemia) was 43.9 µM and the TGI (K-562 leukemia) was 5.63 µM. It also gave a TGI (KM12 colon) of 26.4 µM, a TGI (RPMI-8226 leukemia) of 13.8 µM and a TGI (SK-MEL-2 melanoma) of 28.4 µM. For the same molecule, the TGI (SR leukemia) was 17.3 µM, the TGI (SW-620 colon) was 16.3 µM and the TGI (U251 CNS) was 23.9 µM. The TGI (UACC-62 melanoma) was 12.2 µM.
With `CN(C)c1ccc(/C=C2\N=C(c3ccccc3)N(c3nc4c(Cl)cc(Cl)cc4s3)C2=O)cc1` the TGI (A549 NSCLC) was over 100 µM, the TGI (HL-60(TB) leukemia) was over 100 µM and the TGI (K-562 leukemia) was over 100 µM. It also gave a TGI (KM12 colon) of over 100 µM, a TGI (RPMI-8226 leukemia) of 77.5 µM and a TGI (SK-MEL-2 melanoma) of over 100 µM. It also gave a TGI (SR leukemia) of over 100 µM, a TGI (SW-620 colon) of over 100 µM and a TGI (U251 CNS) of over 100 µM. For the same molecule, the TGI (UACC-62 melanoma) was over 100 µM.
